Data on 51 compounds can be found in PubChem BioAssay AID1996.

SMILES strings stand for the structures. Converted amounts (≈) assume the structure as drawn.

For this data set the following is noted: buffer; pH 7.4; 200.0 µM.
With `COc1ccc(CCN(C)C(=O)c2ccc3c(=O)n4c(nc3c2)CCCCC4)cc1OC`, the solubility (kinetic) is over 0.0653 mg/mL.

In turn, `O=C(Cc1ccc([N+](=O)[O-])cc1)NC1CCCCCC1` yielded a solubility (kinetic) of 0.015 mg/mL (≈ 54.3 µM).

`O=C1NC(=O)C2(CCCc3ccccc32)N1` (stereo unspecified) had a kinetic solubility of 0.0306 mg/mL (≈ 142 µM). This solubility kinetic lies about 2-fold higher than the previous one.

The compound `CC1CCCCN1C(=O)c1ccc(C(=O)c2ccccc2)cc1` (stereo unspecified) displayed a solubility (kinetic) of over 0.0461 mg/mL.

The compound `O=C(COC(=O)c1ccc(F)c(S(=O)(=O)N2CCOCC2)c1)NCCc1ccc(F)cc1` registered a solubility (kinetic) of 0.0175 mg/mL (≈ 37.4 µM).

For `O=C(NCCc1ccccc1)c1ccc(Cl)cc1[N+](=O)[O-]`, the solubility (kinetic) was over 0.0457 mg/mL.

For `COc1ccc(NC(=O)c2ccccc2NC(=O)C2CC=CCC2C(=O)O)cc1` (stereo unspecified), the kinetic solubility was over 0.0592 mg/mL.

Regarding `Cc1ccc(S(=O)(=O)N(C)CC(=O)OCC(=O)NCCc2ccc(S(N)(=O)=O)cc2)cc1`, the kinetic solubility is over 0.0725 mg/mL.

`COc1ccc(C)cc1NC(=S)N1CC(C)OC(C)C1` (stereo unspecified): the solubility (kinetic) is over 0.0442 mg/mL.

Consider `Cc1ccc(C(=O)Nc2cccc3ccccc23)o1`, for which the solubility (kinetic) was 0.0259 mg/mL (≈ 103 µM).

As to `O=C(COC(=O)C1CCC1)NCc1ccc(F)cc1`, the kinetic solubility was over 0.0398 mg/mL.

`CCOC(=O)C(NCCOC)(NC(C)=O)C(F)(F)F` (stereo unspecified) came in with a solubility (kinetic) of over 0.0429 mg/mL.

For the compound `Cc1cc(NC(=O)CSCC(=O)OCc2nnc(-c3ccc(F)cc3)o2)no1`, the kinetic solubility was over 0.061 mg/mL.

Consider `CSc1ccccc1C(=O)C1CCCN(C(=O)NC(C)C)C1` (stereo unspecified), for which the kinetic solubility was 0.0421 mg/mL (≈ 131 µM).

As to `COc1cccc(C(=O)Oc2ccc(N3C(=O)CCC3=O)c(C)c2)c1`, the kinetic solubility is over 0.0509 mg/mL.

With `O=C(CSc1cc(Cl)ccc1Cl)NCCN1C(=O)CSC1=O`, the kinetic solubility was over 0.0569 mg/mL.

`CCOc1ccc(NC(=O)C2C(c3ccccc3)C2(Cl)Cl)cc1` (stereo unspecified) came in with a kinetic solubility of under 0.0008 mg/mL.

`Cc1ccc(C(=O)N2CCN(C)CC2)cc1[N+](=O)[O-]` yielded a kinetic solubility of over 0.0395 mg/mL.

Turning to `CC1CC(c2ccccc2)=Nc2ccccc2N1` (stereo unspecified), the solubility (kinetic) was determined as 0.0262 mg/mL (≈ 111 µM).

`Cc1ccccc1NC(=S)N(CCN(C)C)C(C)c1cccnc1` (stereo unspecified): the kinetic solubility is over 0.0514 mg/mL.

On to `COc1cccc(/C=C/C(=O)c2cccc([N+](=O)[O-])c2)c1`, for which the kinetic solubility stood at 0.0024 mg/mL (≈ 8.47 µM).

In turn, `CCN1CCc2nc3ccccc3c(C(=O)Nc3ccc(F)cc3)c2C1` returned a solubility (kinetic) of 0.0083 mg/mL (≈ 23.8 µM).

In the case of `Cc1ccc(C)c(OCCC(=O)OCC(=O)NCc2ccc(F)cc2)c1`, the kinetic solubility was found to be 0.0037 mg/mL (≈ 10.3 µM). This solubility kinetic is about 2.2-fold lower than that of the compound before.

The compound `O=C(COC(=O)CCc1ccccc1)NCc1ccc2c(c1)OCO2` yielded a solubility (kinetic) of over 0.0512 mg/mL.

`CC(Oc1ccc(Cl)cc1C(N)=O)C(=O)N1CCc2ccccc21` (stereo unspecified): the solubility (kinetic) turned out to be 0.0096 mg/mL (≈ 27.8 µM).

`O=C(c1ccc2ccccc2n1)N(CCO)Cc1ccccc1` came in with a kinetic solubility of 0.0414 mg/mL (≈ 135 µM).

The compound `O=C(C1CCC1)N1CCN(c2cccc(C(F)(F)F)c2)CC1` gave a solubility (kinetic) of 0.0388 mg/mL (≈ 124 µM).

Turning to `Cc1ccccc1C(=O)NCCNC(=O)c1ccco1`, the kinetic solubility was over 0.0408 mg/mL.

For `O=C(Nc1cccc(NC(=O)c2cccs2)c1)c1cccnc1`, the kinetic solubility was over 0.0485 mg/mL.

In turn, `O=C(CSc1cccc[n+]1[O-])c1ccc(Cl)cc1` registered a solubility (kinetic) of 0.0399 mg/mL (≈ 143 µM).

In the case of `CC(CC(=O)O)CC(=O)Nc1cc([N+](=O)[O-])ccc1O` (stereo unspecified), the kinetic solubility was over 0.0423 mg/mL.

On to `CC1CCN(C(=O)CN(Cc2ccc(F)cc2)S(C)(=O)=O)CC1`, for which the kinetic solubility was over 0.0514 mg/mL.

As to `CCC(=O)Nc1c(-c2ccc(C)cc2)c(=O)c2ccccc2n1C`, the solubility (kinetic) was determined as 0.0208 mg/mL (≈ 64.9 µM).

Regarding `CC1CCCN(C(=O)c2ccc([N+](=O)[O-])o2)C1` (stereo unspecified), the kinetic solubility is over 0.0357 mg/mL.

The compound `O=C(O)c1cccc(Cl)n1` yielded a kinetic solubility of over 0.0236 mg/mL.

Take `CCOc1ccc(CNC(=O)Nc2ccccc2)cc1`: the solubility (kinetic) turned out to be 0.0038 mg/mL (≈ 14.1 µM).

In the case of `C[C@H](NC(N)=O)C(=O)Nc1ccc2c(c1)OCO2`, the kinetic solubility is 0.0329 mg/mL (≈ 131 µM). This solubility kinetic is about 8.7-fold higher than that of the compound before.

Consider `COC(=O)CSc1nc(NCc2ccccc2)nc(N(C)C)n1`, for which the solubility (kinetic) was 0.0003 mg/mL (≈ 0.9 µM). Compared with the last compound, the solubility kinetic is about 110-fold lower.

Compound `Cc1cc(Cl)ccc1C(=O)C1CCCN(C(=O)c2ccoc2)C1` (stereo unspecified) registered a solubility (kinetic) of 0.0357 mg/mL (≈ 108 µM).

In the case of `Cc1ccc(NC(=O)C(c2ccccc2)N(C)C)cc1Cl` (stereo unspecified), the solubility (kinetic) came out at 0.0283 mg/mL (≈ 93.5 µM). The solubility kinetic values of the last two compounds are within 1.5-fold of each other.

Regarding `N/C(Cc1ccc([N+](=O)[O-])cc1)=N\OC(=O)C1CCCCC1`, the solubility (kinetic) stood at 0.0412 mg/mL (≈ 135 µM).

Turning to `O=C(COC(=O)c1cc(Br)ccc1O)NC12CC3CC(CC(C3)C1)C2`, the solubility (kinetic) worked out at 0.0031 mg/mL (≈ 7.59 µM).

Take `CC1CCCC(NC(=O)COc2ncnc3ccccc23)C1C` (stereo unspecified): the kinetic solubility worked out at 0.0446 mg/mL (≈ 142 µM). Against the preceding compound, the solubility kinetic is about 14-fold higher.

On to `CNC(=S)N1CCn2cccc2C1c1cccnc1` (stereo unspecified), for which the kinetic solubility was 0.0408 mg/mL (≈ 150 µM).

As to `O=C(NCCCNC(=O)c1ccccc1Cl)c1cnccn1`, the kinetic solubility came out at 0.0435 mg/mL (≈ 136 µM). This solubility kinetic and that of the compound before are within 1.5-fold of each other.

`O=C(O)CC1(CC(=O)NCc2ccncc2)CCCCC1`: the kinetic solubility is over 0.0436 mg/mL.

Compound `Cc1ccc(-c2ccc(OC(=O)c3ccc(=O)[nH]c3)c(C)c2)cc1` gave a solubility (kinetic) of under 0.0007 mg/mL.

Regarding `c1cnc2c(c1)ccc1ncccc12`, the kinetic solubility was over 0.027 mg/mL.

`COc1ccc2oc(C(=O)NCc3ccco3)c(C)c2c1` gave a solubility (kinetic) of 0.0316 mg/mL (≈ 111 µM).

Take `COc1ccc(N2CCN(C(=S)NCc3ccc(C)cc3)CC2)cc1`: the kinetic solubility was under 0.0003 mg/mL.

As to `O=[N+]([O-])c1cccc2c(N3CCOCC3)ccnc12`, the kinetic solubility was over 0.0389 mg/mL.
